In ChEMBL document CHEMBL1909046, “DrugMatrix in vitro pharmacology data”:

What was measured:
B2 bradykinin receptor = biological target: T1, B2 bradykinin receptor (Homo sapiens, UniProt P30411); type: cell membranes, Membrane; conditions: chem-1; note: in other assays of this panel Not Active means under 50% inhibition at 10 µM
T1 sequence (P30411 whole entry): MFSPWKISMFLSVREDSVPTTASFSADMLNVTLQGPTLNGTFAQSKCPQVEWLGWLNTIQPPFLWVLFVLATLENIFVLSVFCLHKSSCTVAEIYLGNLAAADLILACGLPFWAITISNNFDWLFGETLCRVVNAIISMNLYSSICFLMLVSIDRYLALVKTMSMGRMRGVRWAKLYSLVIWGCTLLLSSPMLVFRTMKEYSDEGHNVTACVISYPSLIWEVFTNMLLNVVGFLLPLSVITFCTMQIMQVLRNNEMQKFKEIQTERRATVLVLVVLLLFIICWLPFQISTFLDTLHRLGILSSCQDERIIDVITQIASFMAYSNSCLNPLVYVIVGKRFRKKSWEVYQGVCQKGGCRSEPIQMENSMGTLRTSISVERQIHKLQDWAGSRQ

Substance-P receptor = Substance-P receptor (Homo sapiens, UniProt P25103); type: cell membranes, CHO, Membrane; conditions: cho; note: in other assays of this panel Not Active means under 50% inhibition at 10 µM
D(4) dopamine receptor = biological target: T2, D(4) dopamine receptor (Homo sapiens, UniProt P21917); assay: DRUGMATRIX: Dopamine D4.2 radioligand binding (ligand: [3H] Spiperone); type: cell membranes, CHO-K1, Membrane; conditions: cho-k1; Not Active = under 50% inhibition at 10 µM
T2 sequence (P21917 whole entry): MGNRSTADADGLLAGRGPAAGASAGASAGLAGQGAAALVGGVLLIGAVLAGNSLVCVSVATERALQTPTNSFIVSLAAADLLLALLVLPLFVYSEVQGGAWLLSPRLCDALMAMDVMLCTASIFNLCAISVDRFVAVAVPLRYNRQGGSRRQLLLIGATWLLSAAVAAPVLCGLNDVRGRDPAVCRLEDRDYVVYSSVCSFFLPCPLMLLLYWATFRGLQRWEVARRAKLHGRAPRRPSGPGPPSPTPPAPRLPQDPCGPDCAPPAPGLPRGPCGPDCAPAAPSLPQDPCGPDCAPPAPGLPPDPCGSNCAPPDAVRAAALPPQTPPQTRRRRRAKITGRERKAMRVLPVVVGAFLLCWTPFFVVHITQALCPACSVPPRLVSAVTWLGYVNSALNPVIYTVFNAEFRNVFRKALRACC

[1] = DRUGMATRIX: Imidazoline I2, Central radioligand binding (ligand: [3H] Idazoxan); type: cell membranes, Rattus norvegicus, Wistar, Cerebral cortex, Membrane; conditions: Not Active = under 50% inhibition at 10 µM
[2] = DRUGMATRIX: Platelet-Derived Growth Factor (PDGF) radioligand binding (ligand: [125I] PDGF); type: cell-based; conditions: nih3t3; Not Active = under 50% inhibition at 10 µM
[3] = biological target: Matrix metalloproteinase-9 (Homo sapiens, UniProt P14780); assay: biochemical; type: cell-based;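 note: inhibition of isolated MMP-9 enzyme activity toward a synthetic peptide substrate, from the DrugMatrix protease screening panel; in other assays of this panel Not Active means under 50% inhibition at 10 µM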
[4] = biological target: Mitogen-activated protein kinase 3 (Homo sapiens, UniProt P27361); assay: DRUGMATRIX: Protein Serine/Threonine Kinase, ERK1 enzyme inhibition (substrate: Myelin Basic Protein); design: species or system Escherichia coli; conditions: Not Active = under 50% inhibition at 10 µM
Mitogen-activated protein kinase 3, sequence (P27361 whole entry): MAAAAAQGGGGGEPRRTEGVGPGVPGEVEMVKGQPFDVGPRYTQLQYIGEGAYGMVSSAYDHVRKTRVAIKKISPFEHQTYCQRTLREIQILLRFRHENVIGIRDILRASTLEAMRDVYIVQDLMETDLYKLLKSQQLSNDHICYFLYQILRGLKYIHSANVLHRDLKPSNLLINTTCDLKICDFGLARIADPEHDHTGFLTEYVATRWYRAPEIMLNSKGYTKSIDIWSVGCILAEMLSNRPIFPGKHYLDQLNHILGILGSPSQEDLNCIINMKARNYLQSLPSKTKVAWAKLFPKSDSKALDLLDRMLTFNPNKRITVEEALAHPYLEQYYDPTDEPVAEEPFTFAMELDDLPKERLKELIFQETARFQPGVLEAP

Substance-P receptor, sequence (P25103 whole entry): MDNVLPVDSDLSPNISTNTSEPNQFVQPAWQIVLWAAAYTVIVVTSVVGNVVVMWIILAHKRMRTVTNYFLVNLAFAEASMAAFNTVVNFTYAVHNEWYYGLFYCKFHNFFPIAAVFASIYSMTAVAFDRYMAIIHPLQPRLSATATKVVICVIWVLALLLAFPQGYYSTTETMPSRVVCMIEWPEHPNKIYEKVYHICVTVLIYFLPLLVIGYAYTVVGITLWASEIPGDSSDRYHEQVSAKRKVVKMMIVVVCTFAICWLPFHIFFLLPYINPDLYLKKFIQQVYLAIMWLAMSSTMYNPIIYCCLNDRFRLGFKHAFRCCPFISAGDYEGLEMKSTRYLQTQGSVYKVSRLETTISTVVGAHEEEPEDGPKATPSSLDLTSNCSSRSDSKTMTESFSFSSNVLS
Matrix metalloproteinase-9, sequence (P14780 whole entry): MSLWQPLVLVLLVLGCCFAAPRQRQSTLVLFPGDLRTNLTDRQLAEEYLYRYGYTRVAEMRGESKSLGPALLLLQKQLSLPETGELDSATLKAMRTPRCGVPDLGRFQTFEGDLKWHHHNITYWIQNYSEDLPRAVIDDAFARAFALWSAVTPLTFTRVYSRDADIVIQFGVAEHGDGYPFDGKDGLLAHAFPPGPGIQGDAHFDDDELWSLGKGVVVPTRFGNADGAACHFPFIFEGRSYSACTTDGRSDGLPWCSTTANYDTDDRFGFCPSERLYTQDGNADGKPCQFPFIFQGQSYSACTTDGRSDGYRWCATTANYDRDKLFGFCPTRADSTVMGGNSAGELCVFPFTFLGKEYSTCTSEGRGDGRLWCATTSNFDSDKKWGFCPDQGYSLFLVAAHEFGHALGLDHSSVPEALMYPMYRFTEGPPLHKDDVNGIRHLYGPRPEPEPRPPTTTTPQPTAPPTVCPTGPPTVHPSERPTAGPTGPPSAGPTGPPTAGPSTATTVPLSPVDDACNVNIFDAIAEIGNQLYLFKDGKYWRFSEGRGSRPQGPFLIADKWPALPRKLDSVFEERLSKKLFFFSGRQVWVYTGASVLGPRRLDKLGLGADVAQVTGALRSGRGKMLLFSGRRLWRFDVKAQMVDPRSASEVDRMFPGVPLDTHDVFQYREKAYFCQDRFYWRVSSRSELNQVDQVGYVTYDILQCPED

Row | Structure (SMILES) | IC50 (B2 bradykinin receptor) | IC50 (Substance-P receptor) | IC50 (D(4) dopamine receptor) | IC50 [1] | Ki [1] | IC50 [2] | Ki [2] | IC50 [3] | IC50 ([4]; read-out: IC50) | IC50 [4] | Ki ([1]; read-out: Ki) | IC50 ([3]; read-out: IC50)
1 | Oc1c(Cl)cc(Cl)c(Cl)c1Cc1c(O)c(Cl)cc(Cl)c1Cl [HEXACHLOROPHENE] | Not Active | Not Active | Not Active | Not Active | Not Active | Not Active | Not Active | Not Active | 2.48 µM |  |  | 
2 | NNc1nncc2ccccc12 [HYDRALAZINE] | Not Active | Not Active | Not Active | Not Active | Not Active | Not Active | Not Active | Not Active |  | Not Active |  | 
3 | CC(=O)[C@@]1(O)CC[C@H]2[C@@H]3CCC4=CC(=O)CC[C@]4(C)[C@H]3CC[C@@]21C [HYDROXYPROGESTERONE] | Not Active | Not Active | Not Active | Not Active | Not Active | Not Active | Not Active | Not Active | 3.16 µM |  |  | 
4 | COC1=C(OC)C(=O)C(CCCCCCCCCCO)=C(C)C1=O [IDEBENONE] | Not Active | Not Active | Not Active | Not Active | Not Active | Not Active | Not Active | Not Active |  | Not Active |  | 
5 | CC(C)NNC(=O)c1ccncc1 [IPRONIAZID] | Not Active | Not Active | Not Active | Not Active | Not Active | Not Active | Not Active | Not Active |  | Not Active |  | 
6 | Cc1c(OCC(F)(F)F)ccnc1C[S+]([O-])c1nc2ccccc2[nH]1 (stereo not drawn) [LANSOPRAZOLE] | Not Active | Not Active | Not Active | Not Active | Not Active | Not Active | Not Active | Not Active |  | Not Active |  | 
7 | O=c1cc(N2CCOCC2)oc2c(-c3ccccc3)cccc12 [LY-294002] | Not Active | Not Active | Not Active | Not Active | Not Active | Not Active | Not Active | Not Active |  | Not Active |  | 
8 | COc1ccc2[nH]cc(CCNC(C)=O)c2c1 [MELATONIN] | Not Active | Not Active | Not Active | Not Active | Not Active | Not Active | Not Active | Not Active |  | Not Active |  | 
9 | NC(=O)C[S+]([O-])C(c1ccccc1)c1ccccc1 (stereo not drawn) [MODAFINIL] | Not Active | Not Active | Not Active | Not Active | Not Active | Not Active | Not Active | Not Active |  | Not Active |  | 
10 | CCN(CC)CCOCCC1=CCC2CC1C2(C)C (stereo not drawn) [MYRTECAINE] | Not Active | Not Active | Not Active | Not Active | Not Active | Not Active | Not Active | Not Active |  | Not Active |  | 
11 | O=C(O)c1cccnc1Nc1cccc(C(F)(F)F)c1 [NIFLUMIC ACID] | Not Active | Not Active | Not Active | Not Active | Not Active | Not Active | Not Active | Not Active |  | Not Active |  | 
12 | O=C(N/N=C/c1ccc([N+](=O)[O-])o1)c1cc([N+](=O)[O-])cc([N+](=O)[O-])c1O [NIFURSOL] | Not Active | Not Active | Not Active | Not Active | Not Active | Not Active | Not Active | Not Active |  | Not Active |  | 
13 | COC(=O)Nc1nc2ccc(C(=O)c3cccs3)cc2[nH]1 [NOCODAZOLE] | Not Active | Not Active | Not Active | Not Active | Not Active | Not Active | Not Active | Not Active |  | Not Active |  | 
14 | C#CC1(O)CC[C@H]2[C@@H]3CCC4=CC(=O)CC[C@@H]4[C@H]3CC[C@@]21CC (stereo partly drawn) [NORGESTREL] | Not Active | Not Active | Not Active | Not Active | Not Active | Not Active | Not Active | Not Active |  | Not Active |  | 
15 | COC(=O)Nc1nc2ccc([S+]([O-])c3ccccc3)cc2[nH]1 (stereo not drawn) [OXFENDAZOLE] | Not Active | Not Active | Not Active | Not Active | Not Active | Not Active | Not Active | Not Active |  | Not Active |  | 
16 | CC(=O)O[C@H]1C(=O)[C@@]2(C)[C@H]([C@H](OC(=O)c3ccccc3)[C@]3(O)C[C@H](OC(=O)[C@H](O)[C@@H](NC(=O)c4ccccc4)c4ccccc4)C(C)=C1C3(C)C)[C@]1(OC(C)=O)CO[C@@H]1C[C@@H]2O [PACLITAXEL] | Not Active | Not Active | Not Active | Not Active | Not Active | Not Active | Not Active | Not Active |  | Not Active |  | 
17 | C[n+]1ccc(-c2cc[n+](C)cc2)cc1.[Cl-].[Cl-] [PARAQUAT DICHLORIDE] | Not Active | Not Active | Not Active | Not Active | Not Active | Not Active | Not Active | Not Active |  | Not Active |  | 
18 | CC(C)NCC(O)COc1cccc2[nH]ccc12 (stereo not drawn) [PINDOLOL] | Not Active | Not Active | Not Active | Not Active | Not Active | Not Active | Not Active | Not Active |  | Not Active |  | 
19 | CCn1cc(C(=O)O)c(=O)c2cnc(N3CCCC3)nc21 [PIROMIDIC ACID] | Not Active | Not Active | Not Active | Not Active | Not Active | Not Active | Not Active | Not Active |  | Not Active |  | 
20 | C[n+]1ccccc1/C=N/O.[Cl-] [PRALIDOXIME CHLORIDE] | Not Active | Not Active | Not Active | Not Active | Not Active | Not Active | Not Active | Not Active |  | Not Active |  | 
21 | COc1cc2nc(N3CCN(C(=O)c4ccco4)CC3)nc(N)c2cc1OC [PRAZOSIN] | Not Active | Not Active | Not Active |  |  | Not Active | Not Active |  |  | Not Active | 0.633 µM | 6.96 µM
22 | C[C@]12C=CC(=O)C=C1CC[C@@H]1[C@@H]2[C@@H](O)C[C@@]2(C)[C@H]1CC[C@]2(O)C(=O)CO [PREDNISOLONE] | Not Active | Not Active | Not Active | Not Active | Not Active | Not Active | Not Active | Not Active |  | Not Active |  | 
23 | CC(=O)[C@H]1[C@H](C#N)C[C@H]2[C@@H]3CC=C4C[C@@H](O)CC[C@]4(C)[C@H]3CC[C@@]21C [PREGNENOLONE CARBONITRILE] | Not Active | Not Active | Not Active | Not Active | Not Active | Not Active | Not Active | Not Active |  | Not Active |  | 
24 | CCCN(CCC)S(=O)(=O)c1ccc(C(=O)O)cc1 [PROBENECID] | Not Active | Not Active | Not Active | Not Active | Not Active | Not Active | Not Active | Not Active |  | Not Active |  | 
25 | CCCNCC(O)COc1ccccc1C(=O)CCc1ccccc1 (stereo not drawn) [PROPAFENONE] | Not Active | Not Active | Not Active | Not Active | Not Active | Not Active | Not Active | Not Active |  | Not Active |  | 
26 | CCCOc1ccc(C(=O)OCCN(CC)CC)cc1N [PROPARACAINE] | Not Active | Not Active | Not Active | Not Active | Not Active | Not Active | Not Active | Not Active |  | Not Active |  | 
